# Results: PMC12508156, “Non-canonical dihydrolipoyl transacetylase promotes chemotherapy resistance via mitochondrial tetrahydrofolate signaling” (Nature Communications, 2025)
# Legend:
# [1] = tested on: KB-3-1cisR xenograft tumors; assay: IHC of KB-3-1cisR xenograft tumors (Ac-K44 MTHFD2, MT-CO2, DLAT, Ki-67); type: in vivo, athymic nu/nu mice; set-up: key: IHC intensity score 0 to 3+; conditions: KB-3-1cisR xenograft tumors (Figure 8J)
# Description: Formalin-fixed and paraffin-embedded tumor tissue specimens from HNSCC and NSCLC patients were obtained from the […] Cancer Tissue and Pathology Shared Resources. The Institutional Review Board (IRB) of Emory University approved using human specimens (IRB00003208 - HNSCC, IRB00098377 - NSCLC). Clinical samples were collected with informed consent according to the Health Insurance Portability and Accountability Act. Patients' clinical information was obtained through the […] Technology Applications Shared Resource. Tumors from HNSCC or NSCLC patients who received chemotherapy-containing regimens were used. Immunohistochemistry (IHC) staining of DLAT, acetyl-[…] MTHFD2, MT-CO2, and Ki-67 was performed based on the established protocol. Antigen retrieval was conducted in Tris-EDTA (pH 9.0) for acetyl-[…] MTHFD2 and MT-CO2 and sodium citrate (pH 6.0) for the remaining antigens. […] Assessment of positive DLAT, MT-CO2, and acetyl-[…] MTHFD2 staining intensity within tumor cells was performed using a scoring system ranging from 0 to 3+ based on IHC signal intensity. Mice were subcutaneously injected into the flank with 1 × 10^6 KB-3-1^cisR cells with or without DLAT knockdown. […] Tumors were collected at the experimental endpoint, and tumor proliferation was assessed using Ki-67 IHC staining. The localization, penetration, and efficacy of DMp39 were monitored by assessing the acetyl-[…] levels in tumors and fluorescence imaging analysis using an IVIS imaging system. Drug-induced organ toxicities, including splenomegaly, liver damage, and kidney injury, were monitored by assessing spleen index, alanine transaminase activity, and cystatin C levels in plasma.
# KB-3-1cisR cells = conditions: read-out: cisplatin IC50; KB-3-1cisR cells generated by continuous exposure to cisplatin; cited from earlier work
# Protocol: (§1) The RNAi library contains 328 shRNA clones, and each gene was targeted by 2 ~ 8 clones (Fig. 1a). Eleven genes, including DLAT, were selected as unexplored lead hits with cisplatin-sensitizing potential and were further evaluated in A549^cisR, H1299, and KB-3-1^cisR, and two acetyltrans ... || HCT116 and HT-29 colon cancer cell lines, MDA-MB231, HeLa, 293T, and KB-3-1^cisR cells were cultured in Dulbecco Modified Eagle Medium (DMEM). The PCI-37B and FaDu cell lines was maintained in DMEM/Ham’s F-12 50/50 mix medium. […] All media contained 100 U/ml penicillin and 100 μg/ml of streptomycin, supplemented with 10% fetal bovine serum. The identity of KB-3-1 and PCI-37B cells were described previously[45],[58],[59]. All other cell lines were from the American Type Culture Collection (ATCC). KB-3-1^cisR and A549^cisR cells w ...
# A549cisR cells = conditions: read-out: cisplatin IC50; A549cisR cells generated by continuous exposure to cisplatin; cited from earlier work
# Protocol: as §1
# NADPH = NADPH level (NADP/NADPH-Glo); type: cell-based, human
# Protocol: Cellular metabolic states were examined through various assays. To gauge the levels of total intracellular or mitochondrial reactive oxygen species (ROS), cells were stained with CM-H2DCFDA or mitoSOX, respectively. Intracellular H2O2, NADPH, acetyl-CoA, and GSH/GSSG ratios were quantified using commercial assay kits as listed in the Reagents. Intracellular ATP levels were determined utilizing the ATP bioluminescent somatic cell assay and normalized to the total protein concentrations. The de novo synthesized RNA and proteins were assessed in cancer cells using commercial assays following the manufacturer’s protocols. In brief, O-propargyl-puromycin or uridine analog, 5-EU, was applied to stop translation or modify RNA. Polypeptides or modified RNA were measured using fluorescent azide with Ex/Em at 494/521 nm. PDC activity was determined by measuring the reduction of NAD+ to NADH during the conversion of pyruvate into acetyl-CoA. […]
# A549cisR (a) and KB-3-1cisR (b) cells were transduced with control or […]
# µg/ml; KB-3-1cisR: 5 µg/ml) for 24 h. The GSH/GSSG ratio and relative NADPH levels were measured using GSH/GSSG-Glo Assay and NADP/NADPH-Glo Assay, respectively. Error bars represent SD and are from 4 independent biological replicates for the upper panels of (a,b) and 3 for the lower panels of (a,b). P values were determined by one-way ANOVA.
# (1 picture or pasted object on this page, not shown here)
# KB-3-1 cells = conditions: read-out: cisplatin IC50; parental KB-3-1 cells; cited from earlier work
# Description: The RNAi library contains 328 shRNA clones, and each gene was targeted by 2 ~ 8 clones (Fig. 1a). Eleven genes, including DLAT, were selected as unexplored lead hits with cisplatin-sensitizing potential and were further evaluated in A549^cisR, H1299, and KB-3-1^cisR, and two acetyltrans ...
structure (smiles),measurement,setting,value
N.N.[Cl][Pt][Cl] [cisplatin],Ac-K44 (IHC score),[1]; n=1,2
same,DLAT (IHC score),[1]; n=1,2
same,MT-CO2 (IHC score),[1]; n=1,3
same,Ac-K44 (IHC score),[1]; n=2,3
same,DLAT (IHC score),[1]; n=2,3
same,MT-CO2 (IHC score),[1]; n=2,3
same,Ac-K44 (IHC score),[1]; n=3,2
same,DLAT (IHC score),[1]; n=3,2
same,MT-CO2 (IHC score),[1]; n=3,3
same,Ac-K44 (IHC score),[1]; n=4,2
same,DLAT (IHC score),[1]; n=4,3
same,MT-CO2 (IHC score),[1]; n=4,3
same,Ac-K44 (IHC score),[1]; n=5,2
same,DLAT (IHC score),[1]; n=5,3
same,MT-CO2 (IHC score),[1]; n=5,1
same,Ac-K44 (IHC score),[1]; n=6,2
same,DLAT (IHC score),[1]; n=6,2
same,MT-CO2 (IHC score),[1]; n=6,3
same,IC50,KB-3-1cisR cells,60.5 µM
same,IC50,A549cisR cells,17.6 µM
same,NADPH,"NADPH; A549cisR cells, pLKO.1, n=1",0.7373
same,NADPH,"NADPH; A549cisR cells, pLKO.1, n=2",0.7802
same,NADPH,"NADPH; A549cisR cells, pLKO.1, n=3",0.7845
same,NADPH,"NADPH; A549cisR cells, shDLAT, n=1",0.3926
same,NADPH,"NADPH; A549cisR cells, shDLAT, n=2",0.3967
same,NADPH,"NADPH; A549cisR cells, shDLAT, n=3",0.3159
same,NADPH,"NADPH; A549cisR, CTL, sheet Figure 5G, replicate n=1",0.971
same,NADPH,"NADPH; A549cisR, CTL, sheet Figure 5G, replicate n=2",0.9727
same,NADPH,"NADPH; A549cisR, CTL, sheet Figure 5G, replicate n=3",1.056
same,NADPH,"NADPH; A549cisR, shDLAT+Flag-MTHFD2 (K44Q), sheet Figure 5G, replicate n=1",1.569
same,NADPH,"NADPH; A549cisR, shDLAT+Flag-MTHFD2 (K44Q), sheet Figure 5G, replicate n=2",1.336
same,NADPH,"NADPH; A549cisR, shDLAT+Flag-MTHFD2 (K44Q), sheet Figure 5G, replicate n=3",1.475
same,NADPH,"NADPH; A549cisR, shDLAT+Flag-MTHFD2 (K44R), sheet Figure 5G, replicate n=1",0.5654
same,NADPH,"NADPH; A549cisR, shDLAT+Flag-MTHFD2 (K44R), sheet Figure 5G, replicate n=2",0.5995
same,NADPH,"NADPH; A549cisR, shDLAT+Flag-MTHFD2 (K44R), sheet Figure 5G, replicate n=3",0.6728
same,NADPH,"NADPH; A549cisR, shDLAT, sheet Figure 5G, replicate n=1",0.5978
same,NADPH,"NADPH; A549cisR, shDLAT, sheet Figure 5G, replicate n=2",0.6166
same,NADPH,"NADPH; A549cisR, shDLAT, sheet Figure 5G, replicate n=3",0.6336
same,NADPH,"NADPH; KB-3-1cisR cells, pLKO.1, n=1",0.8565
same,NADPH,"NADPH; KB-3-1cisR cells, pLKO.1, n=2",0.8236
same,NADPH,"NADPH; KB-3-1cisR cells, pLKO.1, n=3",0.8268
same,NADPH,"NADPH; KB-3-1cisR cells, shDLAT, n=1",0.3931
same,NADPH,"NADPH; KB-3-1cisR cells, shDLAT, n=2",0.4089
same,NADPH,"NADPH; KB-3-1cisR cells, shDLAT, n=3",0.429
same,NADPH,"NADPH; KB-3-1cisR, CTL, sheet Figure 5G, replicate n=1",0.9984
same,NADPH,"NADPH; KB-3-1cisR, CTL, sheet Figure 5G, replicate n=2",0.9855
same,NADPH,"NADPH; KB-3-1cisR, CTL, sheet Figure 5G, replicate n=3",1.016
same,NADPH,"NADPH; KB-3-1cisR, shDLAT+Flag-MTHFD2 (K44Q), sheet Figure 5G, replicate n=1",1.788
same,NADPH,"NADPH; KB-3-1cisR, shDLAT+Flag-MTHFD2 (K44Q), sheet Figure 5G, replicate n=2",1.788
same,NADPH,"NADPH; KB-3-1cisR, shDLAT+Flag-MTHFD2 (K44Q), sheet Figure 5G, replicate n=3",1.859
same,NADPH,"NADPH; KB-3-1cisR, shDLAT+Flag-MTHFD2 (K44R), sheet Figure 5G, replicate n=1",0.4153
same,NADPH,"NADPH; KB-3-1cisR, shDLAT+Flag-MTHFD2 (K44R), sheet Figure 5G, replicate n=2",0.3927
same,NADPH,"NADPH; KB-3-1cisR, shDLAT+Flag-MTHFD2 (K44R), sheet Figure 5G, replicate n=3",0.4088
same,NADPH,"NADPH; KB-3-1cisR, shDLAT, sheet Figure 5G, replicate n=1",0.404
same,NADPH,"NADPH; KB-3-1cisR, shDLAT, sheet Figure 5G, replicate n=2",0.4217
same,NADPH,"NADPH; KB-3-1cisR, shDLAT, sheet Figure 5G, replicate n=3",0.4378
same,IC50,KB-3-1 cells,8.4 µM
